Results on 19 molecules are retold here after ChEMBL document CHEMBL3217555, “Potent and selective inhibitors of human peptidylglycine -amidating monooxygenase” (Medchemcomm, 2011).

A short description of data set [1]: (§1) Competitive binding affinity to Xenopus laevis PAM using (R)-Tyr-(S)-ValGly as substrate after 1 hr by HPLC analysis.
Data set [2] concerns the target T1, Peptidyl-glycine alpha-amidating monooxygenase (Homo sapiens, UniProt P19021).
T1 sequence (P19021 whole entry): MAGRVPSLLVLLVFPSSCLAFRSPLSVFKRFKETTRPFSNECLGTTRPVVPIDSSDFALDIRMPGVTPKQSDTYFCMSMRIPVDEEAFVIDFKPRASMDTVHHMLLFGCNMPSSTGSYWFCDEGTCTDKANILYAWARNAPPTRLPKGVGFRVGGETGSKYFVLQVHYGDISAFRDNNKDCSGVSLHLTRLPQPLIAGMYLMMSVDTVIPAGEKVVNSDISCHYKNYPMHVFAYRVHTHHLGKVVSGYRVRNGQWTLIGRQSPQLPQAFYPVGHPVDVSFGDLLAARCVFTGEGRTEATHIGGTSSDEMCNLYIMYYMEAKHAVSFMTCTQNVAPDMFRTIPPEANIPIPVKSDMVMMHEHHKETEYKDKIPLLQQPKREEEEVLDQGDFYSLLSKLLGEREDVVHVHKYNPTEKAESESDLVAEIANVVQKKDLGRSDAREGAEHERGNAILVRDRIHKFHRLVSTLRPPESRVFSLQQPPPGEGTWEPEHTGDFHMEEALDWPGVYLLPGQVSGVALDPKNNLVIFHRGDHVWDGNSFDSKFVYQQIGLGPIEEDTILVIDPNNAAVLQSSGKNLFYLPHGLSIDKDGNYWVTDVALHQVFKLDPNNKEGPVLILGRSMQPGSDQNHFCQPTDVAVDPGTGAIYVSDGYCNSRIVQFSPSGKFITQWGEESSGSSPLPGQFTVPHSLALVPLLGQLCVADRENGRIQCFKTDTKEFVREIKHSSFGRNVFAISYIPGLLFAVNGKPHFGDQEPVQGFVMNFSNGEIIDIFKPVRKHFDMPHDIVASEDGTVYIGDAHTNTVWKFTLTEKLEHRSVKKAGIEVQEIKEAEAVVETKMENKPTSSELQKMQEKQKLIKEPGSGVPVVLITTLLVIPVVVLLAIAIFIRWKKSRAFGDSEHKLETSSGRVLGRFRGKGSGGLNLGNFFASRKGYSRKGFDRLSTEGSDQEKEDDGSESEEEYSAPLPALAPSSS
The data set can be described thus: Competitive binding affinity to PAM secreted from human SW1783 cells using (R)-Tyr-(S)-ValGly as substrate after 2 hrs by HPLC analysis.

In data set [3] the target is T1, Peptidyl-glycine alpha-amidating monooxygenase. Briefly: (§2) Competitive binding affinity to PAM extracted from human H889 cells using (R)-Tyr-(S)-ValGly as substrate after 2 hrs by HPLC analysis.
Data set [4] shares this target. The data set can be described thus: Competitive binding affinity to PAM extracted from human PC3 cells using (R)-Tyr-(S)-ValGly as substrate after 2 hrs by HPLC analysis. Also noted: species or system PC-3.
The target in data set [5] is T2, Peptidyl-glycine alpha-amidating monooxygenase (Homo sapiens) (UniProt P19021).
T2 sequence (whole entry): T1 sequence (P19021 whole entry)
The data set can be described thus: Potency index, ratio of Procalcitonin Km(app) to compound IC50 for PAM extracted from human DMS53 cells. Particulars: DMS-53. The format is cell-based.

The test system of a further data set is H889. Briefly: Selectivity ratio of IC50 for Xenopus laevis PAM to IC50 for PAM extracted from human H889 cells. The format is cell-based.
Data set [6] has as its target T1, Peptidyl-glycine alpha-amidating monooxygenase. Briefly: Competitive binding affinity to PAM extracted from human DMS53 cells using (R)-Tyr-(S)-ValGly as substrate after 2 hrs by HPLC analysis. Also on record: species or system DMS-53.
Data set [7] has the same target. Briefly: Competitive binding affinity to PAM secreted from human DMS53 cells using (R)-Tyr-(S)-ValGly as substrate after 2 hrs by HPLC analysis. Also noted: species or system DMS-53.
Data set [8] deals with T2, Peptidyl-glycine alpha-amidating monooxygenase (Homo sapiens). The data set can be described thus: Potency index, ratio of Procalcitonin Km(app) to compound IC50 for PAM extracted from human H889 cells. The format is cell-based.
For the next data set, the species on record is Xenopus laevis. The description is as §1.
Data set [9] concerns the target T1, Peptidyl-glycine alpha-amidating monooxygenase. The data set can be described thus: Competitive inhibition of PAM secreted from human PC3 cells by Dixon plot analysis. The format is cell-based, PC-3.
Substrate in data set [10]: CC(=O)N[C@@H](Cc1ccccc1)C(=O)NCC(=O)O
The data set is described as §2.

Substrate in data set [11]: O=C(O)CNC(=O)Cc1ccccc1
Described as §2.

The target of data set [12] is Peptidyl-glycine alpha-amidating monooxygenase (Homo sapiens) (UniProt P19021). The data set can be described thus: Competitive binding affinity to PAM extracted from human H889 cells using (R)-Tyr-(S)-ValGly as substrate after 2 hrs by HPLC analysis.

Where a SMILES comes first, the peptide text is derived from it. Bounds are passed on as bounds.

The molecule `CC(=O)N[C@@H](Cc1ccccc1)C(=O)OCC(=O)O` showed an IC50 in [1] above 2000 µM. As to `CCCCCCCCCC(=O)OCC(=O)O`, the IC50 in data set [2] was found to be 30 µM; in data set [3], 0.05 µM; in data set [4] it was 0.12 µM; in [6], 0.04 µM; in data set [7], 30 µM; in data set [1], 40 µM. In addition, the Ratio in [5] amounted to 5000; in data set [8] it was 6000. Also, the Ratio IC50 in the data set with H889 was determined as 800.

Take `CCCCCCCCCCCCCC(=O)OCC(=O)O`: the IC50 in data set [1] was found to be 30 µM. This counts as double-digit micromolar. `O=C(O)CNC(=O)Cc1ccccc1`: in the data set filed under Xenopus laevis, the Km was determined as 440 µM.

Molecule `CSCC[C@H](NC(C)=O)C(=O)SCC(=O)O` displayed a 50% inhibitory concentration (IC50) in data set [1] of 50 µM. Regarding `CCCCCCCCCC(=O)NCC(=O)O`, the half-maximal inhibitory concentration (IC50) in data set [6] is 30 µM; in data set [7] it was 110 µM. Also, the Km in the data set filed under Xenopus laevis stood at 440 µM. For the molecule `CC(=O)N[C@@H](Cc1ccccc1)C(=O)SCC(=O)O`, the half-maximal inhibitory concentration (IC50) in data set [3] turned out to be 45 µM; in data set [1] it was 25 µM. `CCCCCC(=O)OCC(=O)O` gave an IC50 in data set [1] of 780 µM.

In the case of `O=C(O)COC(=O)Cc1ccccc1`, the IC50 in [3] worked out at 2 µM; in data set [1], 510 µM. For the same molecule, the Ratio IC50 in the data set on H889 was above 250. For the molecule `CCCCCCCC(=O)OCC(=O)O`, the IC50 in data set [1] was 250 µM. Turning to `CC(=O)N[C@@H](CC(C)C)C(=O)SCC(=O)O`, in [1], the IC50 turned out to be 260 µM. Consider `CC(=O)N[C@@H](Cc1ccccc1)C(=O)NCC(=O)O` (Ac-Phe-Gly-OH), for which, in the data set listed under Xenopus laevis, the Km was 170 µM.

Turning to `O=C(O)CSC(=O)Cc1ccccc1`, the IC50 in data set [3] was 45 µM; in [1], 20 µM.

Molecule `O=C(O)COC(=O)c1ccccc1` displayed an IC50 in [1] of 250 µM.

For `O=C(O)CSC(=O)c1ccccc1`, the 50% inhibitory concentration (IC50) in [1] was determined as 150 µM. On to `CCCCCCCCCCCC(=O)OCC(=O)O`, for which the figures for the IC50 in [3] and in data set [1] were 0.06 µM and 35 µM, respectively.

Molecule `O=C(O)C/C=C/c1ccccc1` showed a Ki in data set [9] of 0.096 µM. Regarding `CCCCCCCCCC(=O)SCC(=O)O`, the IC50 in [1] came to 9 µM.

B1: Peptidyl-glycine alpha-amidating monooxygenase (Homo sapiens), P19021 (protein)
chain: T1 sequence (P19021 whole entry)
Consider B1, for which the values for the Km in [10], in data set [11] and in [12] were 15 µM, 330 µM and 200 µM, respectively.
